Measurements taken from publication PMC10354055, “An optimized Nurr1 agonist provides disease-modifying effects in Parkinson’s disease models” (Nature Communications, 2023).
Values joined by “and” are separate entries in the source; they are usually repeats but may differ in a detail not shown here. Equal values may be shown once.

What was measured:
Format in all cases: cell-based
Nor1 = biological target: T1, Nor1 (Homo sapiens, UniProt Q92570); assay: Luciferase reporter assay, Nor1 LBD, SK-N-BE(2)C cells; conditions: Fig. 1f; CQ 100 µM, 4A7C-301 20 µM, PGA1 10 µM
T1 construct: using LBD of NR4A subfamily members in SK-N-BE(2)C cells; expressed in transfected cells; host or cells: SK-N-BE(2)C
T1 sequence (Q92570 394-623 limits assumed): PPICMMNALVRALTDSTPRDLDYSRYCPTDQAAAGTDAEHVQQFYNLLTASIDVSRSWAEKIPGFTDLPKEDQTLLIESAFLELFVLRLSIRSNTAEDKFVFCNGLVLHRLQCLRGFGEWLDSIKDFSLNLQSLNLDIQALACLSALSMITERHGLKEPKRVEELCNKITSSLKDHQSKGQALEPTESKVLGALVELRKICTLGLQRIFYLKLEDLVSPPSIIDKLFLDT

Nurr1-LBD point mutants [1] = biological target: T2, Nurr1-LBD point mutants (Mus musculus, UniProt Q06219); assay: Luciferase assay with point-mutants of Nurr1-LBD, SK-N-BE(2)C cells;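 also: Firefly luciferase normalized to beta-galactosidase activity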; conditions: Supplementary Fig. 2, WT
T2 construct: expressed in transfected cells; host or cells: SK-N-BE(2)C
T2 sequence (Q06219 whole entry, change not shown, the tested form may be a part): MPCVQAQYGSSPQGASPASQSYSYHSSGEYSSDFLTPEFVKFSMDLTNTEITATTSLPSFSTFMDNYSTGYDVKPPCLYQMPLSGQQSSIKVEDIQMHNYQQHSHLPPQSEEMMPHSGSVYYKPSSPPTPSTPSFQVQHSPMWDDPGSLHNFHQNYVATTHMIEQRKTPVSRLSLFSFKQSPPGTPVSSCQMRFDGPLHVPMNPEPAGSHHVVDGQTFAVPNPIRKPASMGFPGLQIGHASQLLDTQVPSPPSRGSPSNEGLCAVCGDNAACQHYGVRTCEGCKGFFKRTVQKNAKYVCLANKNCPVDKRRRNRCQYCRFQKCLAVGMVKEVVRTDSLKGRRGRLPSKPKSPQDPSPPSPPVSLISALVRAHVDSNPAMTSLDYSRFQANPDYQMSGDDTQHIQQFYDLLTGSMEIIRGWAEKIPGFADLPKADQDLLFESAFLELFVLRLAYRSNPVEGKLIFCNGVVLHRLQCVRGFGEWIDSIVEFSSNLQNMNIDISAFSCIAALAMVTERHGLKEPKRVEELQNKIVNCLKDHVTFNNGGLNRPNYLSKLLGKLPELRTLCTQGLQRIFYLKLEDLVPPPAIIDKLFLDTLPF
Description: (§1) Nurr1 transactivity was normalized to β-galactosidase activity.
(§2) Nurr1 mutants were generated using the QuikChange ǁ XL site-directed mutagenesis kit (Agilent Technologies) according to the manufacturer’s instruction. Mutagenesis reactions were carried out on the plasmid of mouse Nurr1 cloned into pcDNA3.1 backbone, and then verified by sequencing.

Nurr1-LBD point mutants [2] = biological target: T3, Nurr1-LBD point mutants (Mus musculus, UniProt Q06219, D594A); assay: as above; conditions: Supplementary Fig. 2, D594A
T3 construct: expressed in transfected cells; host or cells: SK-N-BE(2)C
T3 sequence (Q06219 whole entry D594A, the tested form may be a part): as the sequence (Q06219 whole entry, change not shown, the tested form may be a part) above, with D594A counted along it
Description: as §1, §2

Nurr1-LBD point mutants [3] = biological target: T4, Nurr1-LBD point mutants (Mus musculus, UniProt Q06219, K590A); assay: as above; conditions: Supplementary Fig. 2, K590A
T4 construct: expressed in transfected cells; host or cells: SK-N-BE(2)C
T4 sequence (Q06219 whole entry K590A, the tested form may be a part): as the sequence (Q06219 whole entry, change not shown, the tested form may be a part) above, with K590A counted along it
Description: as §1, §2

Nurr1-LBD point mutants [4] = biological target: T5, Nurr1-LBD point mutants (Mus musculus, UniProt Q06219, L593A); assay: as above; conditions: Supplementary Fig. 2, L593A
T5 construct: expressed in transfected cells; host or cells: SK-N-BE(2)C
T5 sequence (Q06219 whole entry L593A, the tested form may be a part): as the sequence (Q06219 whole entry, change not shown, the tested form may be a part) above, with L593A counted along it
Description: as §1, §2

Nurr1-LBD point mutants [5] = biological target: T6, Nurr1-LBD point mutants (Mus musculus, UniProt Q06219, S441A); assay: as above; conditions: Supplementary Fig. 2, S441A
T6 construct: expressed in transfected cells; host or cells: SK-N-BE(2)C
T6 sequence (Q06219 whole entry S441A, the tested form may be a part): as the sequence (Q06219 whole entry, change not shown, the tested form may be a part) above, with S441A counted along it
Description: as §1, §2

Structure (SMILES): CCCCC[C@H](O)/C=C/[C@H]1C=CC(=O)[C@@H]1CCCCCCC(=O)O [PGA1, Prostaglandin A1]
- Luciferase activity (fold), Nor1 (Nor1): 8.223 fold and 7.904 fold and 8.304 fold
- Luciferase activity (fold) (Nurr1-LBD point mutants [1]): 12.6112 fold and 12.2963 fold and 12.2061 fold
- Luciferase activity (fold) (Nurr1-LBD point mutants [2]): 12.291 fold and 11.1318 fold and 11.3674 fold
- Luciferase activity (fold) (Nurr1-LBD point mutants [3]): 12.5774 fold and 11.0052 fold and 12.4192 fold
- Luciferase activity (fold) (Nurr1-LBD point mutants [4]): 11.666 fold and 12.1821 fold and 11.0369 fold
- Luciferase activity (fold) (Nurr1-LBD point mutants [5]): 12.6359 fold and 12.6237 fold and 10.9807 fold
